From US8633226B2, “Piperidinyl derivative as a modulator of chemokine receptor activity” (Bristol-Myers Squibb Company, priority 2008, dated 2014)
Like-named read-outs stand apart in the source and are kept apart here.

What was measured:
Human CCR1 = Human CCR1 (Homo sapiens (Human), UniProt P32246); assay: Human CCR1 THP-1 binding assay; details: [125I]-MIP-1α competition, THP-1 cells
Experimental: For radioligand competition studies, a final concentration of 1×10^5 THP-1 monocytic leukemia cells are combined with 100 μg of LS WGA PS beads (Amersham, Cat.#: RPNQ 0260) in 40 μL of assay buffer (RPMI 1640 without phenol red, 50 mM HEPES, 5 mM MgCl2, 1 mM CaCl2, 0.1% BSA). The THP-1 cell/bead mixture was added to each well of a 384-well assay plate (PerkinElmer, Cat. #:6007899) containing test compound in 3-fold serial dilution, with final concentrations ranging from 8 μM to 0.14 nM. A final concentration of 0.1 nM [^125I]-MIP-1α (PerkinElmer, Cat. #NEX298) in 20 μL assay buffer was added to the reaction. Unlabeled MIP-1α was added in excess to some wells to determine non-specific binding. Sealed assay plates were incubated at room temperature for 12 h then analyzed by LEADseeker™.
The competition data of the test compound over a range of concentrations is plotted as percentage inhibition of radioligand specifically bound in the absence of test compound (percent of total signal). After correcting for non-specific binding, IC50 values are determined. The IC50 value is defined as the concentration of test compound needed to reduce [^125I]-MIP-1α specific binding by 50% and is calculated using the four parameter logistic equation to fit the normalized data. The Ki values are determined by application of the Cheng-Prusoff equation to the IC50 values, where Ki=IC50/(1+ligand concentration/Kd). The Kd of [^125I]-MIP-1α in THP-1 cells is 0.1 nM. Each experiment was run in duplicate.

Human PXR = Human PXR (Homo sapiens (Human), UniProt O75469); assay: PXR transactivation assay; type: cell-based; details: HepG2 cells, CYP3A-Luc reporter; reported as EC60
Description: The cell culture medium used is DMEM. […] Charcoal/dextran treated fetal bovine serum (FBS) was purchased from Hyclone (Logan, Utah). HepG2 cells were obtained from ATCC (Manassas, Va.). Human PXR-pcDNA3 and luciferase reporter containing CYP3A4 promoter, CYP3A-Luc, were generated at Bristol-Myers Squibb. White tissue culture (TC)-surface 384-well plates were purchased from Perkin Elmer (Boston, Mass.). Luciferase substrate (Steady-Glo) was purchased from Promega (Madison, Wis.). Control compounds rifampicin, mifepristone, and sulfinpyrazone were purchased from Sigma (St. Louis, Mo.).
Culture of HepG2 cells is performed in T175 flasks using DMEM containing 10% FBS. The transfection mixture contains 1 μg/mL of PXR-pcDNA3 plasmid DNA, 20 μg/ml of Cyp3A-Lue plasmid DNA, 90 μL/mL of Lipofectamine 2000, and serum-free medium. After incubating at room temperature for 20 minutes, the transfection mixture (1 ml per flask) is applied to the cells in fresh medium (20 mL per flask), and flasks incubated at 37° C. (5% CO2) overnight.
The flasks are then tapped vigorously to break up cell aggregates. After the addition of 8 mL of DMEM containing 5% charcoal/dextran-treated FBS, the entire mixture is transferred to conical tubes. Cells are then centrifuged at 1000 rpm for 5 minutes. Cell pellets are resuspended to a final count of ˜7×10^6 cells/ml, in freezing media (DMEM containing 20% serum and 10% DMSO). The cell suspension is aliquoted into 15-mL polypropylene tubes, 5 mL per tube. Cells are slowly frozen by placing in a Styrofoam-insulated container at −80° C. overnight. Vials are transferred to an Ultracold (−140° C.) freezer after 24 hours for long-term storage.
Vials of cryopreserved cells are thawed rapidly in a warm water bath for five minutes. Cells are pooled and diluted to 50 mL in a 50-mL conical vial. The thawed cells are centrifuged at 1500 rpm for 5 minutes to collect the cells and the supernatant discarded. Cells are then resuspended in fresh Media II (DMEM containing 5% charcoal/dextran-treated FBS, 1% Penicillin/Streptomycin, 100 μM Non-essential Amino Acids, 1 mM Sodium Pyruvate, and 2 mM L-Glutamine), counted using the Guava Cell Counter, and diluted to 1.6×10^5 cells/ml in the same media.
Fifty microliters of cell mixture is added to wells in columns 1-23 of white tissue-culture treated 384-well plates containing 0.25 μL of test compound dissolved in 100% DMSO. Fifty microliters of Media II is added to wells in column 24. The plates are incubated at 37° C. (5% CO2) for 24 hours, then 5 μL of Alamar Blue reagent (Trek Diagnostics, Cat #00-100) is added to each well. Plates are then incubated an additional two hours at 37° C., 5% CO2 and then one hour at room temperature. […] After the fluorescence is measured, 25 μL of luciferase substrate (Steady-Glo, Promega) is added to each well. The plates are incubated for fifteen minutes at room temperature, after which the luminescence is read on a PheraStar (BMG Labtech) plate reader.
Rifampicin (10 μM), a well-known agonist of PXR, is included in each plate as an internal standard and positive control. The data is then expressed as percent control (% CTRL), where the control signal is the signal from the 10 μM rifampicin and the blank signal is that from the DMSO vehicle. % CTRL=((Compound signal−Blank signal)/(Control signal−Blank signal))*100
The EC50 is defined as the concentration corresponding to half of the maximal response derived from the fitted 20-point curve as determined using a four-parameter logistic regression model. Additionally, compounds may also be reported as EC20 or EC60.

[1] = In vitro metabolism assay, human liver microsomes, Assay Conditions A; type: in vitro ADME; details: 0.5 μM compound, 10 minutes, 37° C.
Experimental: Test compound is received as a 3.5 mM stock solution in 100 percent DMSO. Compound is diluted to create a 50 μM acetonitrile (ACN) solution containing 1.4% DMSO, which is then used as a 100× stock for incubation with microsomes. Each compound is tested in duplicate separately in each of three species in the Metabolic Stability-Human, Rat, and Mouse assay suite or as individual species in the Metabolic Stability-Dog or Metabolic Stability-Monkey suites. Compound, NADPH and liver microsome solutions are combined for incubation in three steps:
152 μL of liver microsome suspension, protein concentration of 1.1 mg/mL in 100 mM NaPi, pH 7.4, 6.6 mM MgCl2 buffer, is pre-warmed at 37° C.
• 1) 1.7 μL of 50 μM compound (98.6% ACN, 1.4% DMSO) is added to the same tube and pre-incubated at 37° C. for 5 minutes. • 2) The reaction is initiated by the addition of 17 μL of pre-warmed 10 mM NADPH solution in 100 mM NaPi, pH 7.4. • 3) Reaction components are mixed well, and 75 μL are immediately transferred into 150 μl quench/stop solution (zero-time point, T0). Reactions are incubated at 37° C. for 10 minutes and then an additional 75 μL aliquot is transferred into 150 μL quench solution. Acetonitrile containing 100 μM DMN (a UV standard for injection quality control), is used as the quench solution to terminate metabolic reactions. • 4) Quenched mixtures are centrifuged at 1500 rpm (˜500×g) in an Allegra X-12 centrifuge, SX4750 rotor (Beckman Coulter Inc., Fullerton, Calif.) for fifteen minutes to pellet denatured microsomes. A volume of 90 μL of supernatant extract, containing the mixture of parent compound and its metabolites, is then transferred to a separate 96-well plate for UV-LC/MS-MS analysis to determine the percent of parent compound that is remaining in the mixture. • 5)

hERG = hERG (Homo sapiens (Human), UniProt Q12809); assay: hERG patch clamp assay; type: cell-based; details: HEK-293 cells stably expressing hERG, pH 7.4, protein-free buffer, read-out: hERG, % inh @ 30 μM
Experimental: Whole-cell patch-clamp was used to directly measure hERG tail currents in HEK-293 cells stably expressing the cloned hERG potassium channel α subunit. Effects of compounds were calculated by measuring inhibition of peak tail current. Experiments were carried out using an aqueous buffer with pH 7.4 at room temperature. There was no protein in the assay buffer. The test concentrations reported are nominal free drug levels.

[2] = molecular target: human cardiac sodium channel SCN5A (Homo sapiens (Human), UniProt Q14524); assay: Sodium channel whole-cell patch-clamp assay; type: cell-based; details: HEK-293 cells expressing human cardiac sodium channel SCN5A, pH 7.4, protein-free buffer, read-out: Na, % inh
Experimental: Whole-cell patch-clamp was used to directly measure inward sodium currents in HEK-293 cells expressing the human cardiac sodium channel, SCN5A. After reach steady-state effect in the presence of drug, rate-dependence was assessed by stimulation at frequencies of 1 Hz and 4 Hz. Experiments were carried out using an aqueous buffer at pH 7.4 and at room temperature. There is no protein in the buffer and drug concentrations reported are nominal free drug levels. Test article was evaluated up to 10 μM (protein-free buffer). Rate-dependence of inhibition was assessed by stimulation at frequencies of 1 Hz and 4 Hz.

[3] = molecular target: human cardiac L-type Ca channel (α1C) and its β subunit (Homo sapiens (Human), UniProt Q13936); assay: L-type calcium channel whole-cell patch-clamp assay; type: cell-based; details: HEK-293 cells, protein-free buffer
Experimental: In addition to the potential for interaction with the L-type calcium channel, whole-cell patch-clamp was used to directly measure inward calcium currents in HEK-293 cells stably expressing the cloned human cardiac L-type Ca channel (α1C) and its β subunit. Effects of compounds were calculated by measuring inhibition of peak current. Experiments were carried out using an aqueous buffer at pH 7.4 and at room temperature. There is no protein in the buffer and drug concentrations reported are nominal free drug levels.

Protein binding, human = type: in vitro ADME
Protein binding, rabbit = type: in vitro ADME
[4] = Electrocardiography in anesthetized rabbits; type: in vivo; details: male, blood, anesthetized rabbit, iv
Experimental: (§1) A dose-response study of test compound was conducted in anesthetized rabbits to assess the cardiac electrophysiologic profile established in the cellular ion channel assays.
(§2) Experiments were performed in propofol-fentanyl anesthetized closed-chest male rabbits. A body surface electrocardiogram (ECG) and an intra-cardiac His-bundle electrogram were continuously monitored and recorded during the studies, using a PoNeMah system and a Prucka electrophysiological recording system, respectively. Test compound was prepared on the day of study in a vehicle of PEG400:ethanol:water (1:1:1) at a dosing concentration of 30 mg/mL. Test compound (n=3) or vehicle (n=3) was given intravenously over 5 minutes via an infusion pump at incremental doses of 3, 10 and 30 mg/kg. The interval between doses was 10 minutes, allowing for a 5-minute test agent infusion and a 5-minute rest period. Blood was sampled at baseline (pre-drug infusion) and immediately at the end of each infusion. For the 30 mg/kg dose, additional blood samples were taken at 10, 20 and 30 minutes after the end of infusion.
(§3) PR interval, QRS duration and QT interval were averaged from a 1 minute ECG recording period at time of blood sampling. QT interval was corrected for heart rate effects using both Fridericia (QTcf) and Van der Water (QTcv) formulae. AH and HV intervals, representing A-V node conduction and His-Purkinje conduction, respectively, were assessed by manual measurements from the His-bundle electrogram. Data were expressed as percent change from pre-drug baseline (mean±SEM) for PR, QRS, AH and HV intervals as well as delta change from the pre-drug infusion baseline (mean±SEM) for QTc intervals. Changes of ≧10% in PR, QRS, and AH intervals, and 20% in HV interval, as well as >10 ms in QTc interval are considered significant based on experience with the model.

anesthetized rabbits = assay: Electrocardiography in anesthetized rabbits; type: in vivo; details: anesthetized rabbit; for Cmax: Free drug at QT effect dose / Cmax: Free drug at NOEL dose: iv
Experimental: as §1, §2, §3

Human CCR1, sequence (P32246 whole entry): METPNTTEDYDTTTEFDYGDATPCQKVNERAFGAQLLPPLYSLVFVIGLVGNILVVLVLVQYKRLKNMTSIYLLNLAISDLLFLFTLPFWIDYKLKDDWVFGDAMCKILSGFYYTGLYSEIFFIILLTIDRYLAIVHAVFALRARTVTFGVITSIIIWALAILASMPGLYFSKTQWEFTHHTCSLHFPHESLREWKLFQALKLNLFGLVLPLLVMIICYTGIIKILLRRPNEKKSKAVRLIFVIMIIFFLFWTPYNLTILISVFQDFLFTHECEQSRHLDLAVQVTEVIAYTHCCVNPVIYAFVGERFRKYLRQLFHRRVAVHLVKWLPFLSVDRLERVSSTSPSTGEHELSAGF
hERG, sequence (Q12809 whole entry): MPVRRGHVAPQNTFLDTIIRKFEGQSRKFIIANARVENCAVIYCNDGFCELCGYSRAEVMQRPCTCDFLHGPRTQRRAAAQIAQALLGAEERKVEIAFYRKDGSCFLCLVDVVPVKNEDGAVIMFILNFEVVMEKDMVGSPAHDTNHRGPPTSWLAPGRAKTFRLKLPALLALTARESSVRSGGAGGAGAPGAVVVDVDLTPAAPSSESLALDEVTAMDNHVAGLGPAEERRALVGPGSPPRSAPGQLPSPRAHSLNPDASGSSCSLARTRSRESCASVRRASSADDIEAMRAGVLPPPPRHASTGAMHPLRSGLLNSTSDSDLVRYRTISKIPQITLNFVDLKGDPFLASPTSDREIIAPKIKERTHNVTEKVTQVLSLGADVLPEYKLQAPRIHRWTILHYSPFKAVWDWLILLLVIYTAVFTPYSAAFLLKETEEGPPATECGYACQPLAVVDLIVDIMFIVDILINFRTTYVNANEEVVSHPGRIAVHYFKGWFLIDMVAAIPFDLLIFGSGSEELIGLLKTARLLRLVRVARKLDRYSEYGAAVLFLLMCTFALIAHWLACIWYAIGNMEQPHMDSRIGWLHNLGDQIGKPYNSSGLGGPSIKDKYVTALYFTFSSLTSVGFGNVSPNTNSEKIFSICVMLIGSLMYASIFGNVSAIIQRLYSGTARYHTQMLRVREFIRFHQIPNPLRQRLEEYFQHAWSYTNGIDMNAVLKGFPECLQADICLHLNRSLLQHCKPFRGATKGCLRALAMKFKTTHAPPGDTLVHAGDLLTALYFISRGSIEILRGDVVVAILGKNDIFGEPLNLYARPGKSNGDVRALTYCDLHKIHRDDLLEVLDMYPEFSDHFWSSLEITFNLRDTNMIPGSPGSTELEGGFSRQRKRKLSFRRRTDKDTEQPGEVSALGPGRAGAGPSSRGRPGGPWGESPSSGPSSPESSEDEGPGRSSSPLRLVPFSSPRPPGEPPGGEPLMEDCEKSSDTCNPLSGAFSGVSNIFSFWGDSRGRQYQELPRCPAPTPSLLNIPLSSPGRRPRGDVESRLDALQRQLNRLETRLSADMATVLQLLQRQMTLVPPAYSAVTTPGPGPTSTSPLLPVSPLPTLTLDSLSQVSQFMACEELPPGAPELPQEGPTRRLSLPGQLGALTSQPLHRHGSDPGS
Human PXR, sequence (O75469 whole entry): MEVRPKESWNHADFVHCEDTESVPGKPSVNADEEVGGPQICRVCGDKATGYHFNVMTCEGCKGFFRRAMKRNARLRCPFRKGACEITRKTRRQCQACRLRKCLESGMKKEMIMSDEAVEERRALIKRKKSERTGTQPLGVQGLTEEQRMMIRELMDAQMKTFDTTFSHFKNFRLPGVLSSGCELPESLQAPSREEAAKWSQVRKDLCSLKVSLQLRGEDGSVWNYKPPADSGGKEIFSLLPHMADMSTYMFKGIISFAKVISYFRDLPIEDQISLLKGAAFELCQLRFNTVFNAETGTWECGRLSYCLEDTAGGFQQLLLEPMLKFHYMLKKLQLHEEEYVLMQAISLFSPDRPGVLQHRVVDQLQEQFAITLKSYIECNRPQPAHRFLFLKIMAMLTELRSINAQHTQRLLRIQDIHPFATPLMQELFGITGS
human cardiac L-type Ca channel (α1C) and its β subunit, sequence (Q13936 whole entry): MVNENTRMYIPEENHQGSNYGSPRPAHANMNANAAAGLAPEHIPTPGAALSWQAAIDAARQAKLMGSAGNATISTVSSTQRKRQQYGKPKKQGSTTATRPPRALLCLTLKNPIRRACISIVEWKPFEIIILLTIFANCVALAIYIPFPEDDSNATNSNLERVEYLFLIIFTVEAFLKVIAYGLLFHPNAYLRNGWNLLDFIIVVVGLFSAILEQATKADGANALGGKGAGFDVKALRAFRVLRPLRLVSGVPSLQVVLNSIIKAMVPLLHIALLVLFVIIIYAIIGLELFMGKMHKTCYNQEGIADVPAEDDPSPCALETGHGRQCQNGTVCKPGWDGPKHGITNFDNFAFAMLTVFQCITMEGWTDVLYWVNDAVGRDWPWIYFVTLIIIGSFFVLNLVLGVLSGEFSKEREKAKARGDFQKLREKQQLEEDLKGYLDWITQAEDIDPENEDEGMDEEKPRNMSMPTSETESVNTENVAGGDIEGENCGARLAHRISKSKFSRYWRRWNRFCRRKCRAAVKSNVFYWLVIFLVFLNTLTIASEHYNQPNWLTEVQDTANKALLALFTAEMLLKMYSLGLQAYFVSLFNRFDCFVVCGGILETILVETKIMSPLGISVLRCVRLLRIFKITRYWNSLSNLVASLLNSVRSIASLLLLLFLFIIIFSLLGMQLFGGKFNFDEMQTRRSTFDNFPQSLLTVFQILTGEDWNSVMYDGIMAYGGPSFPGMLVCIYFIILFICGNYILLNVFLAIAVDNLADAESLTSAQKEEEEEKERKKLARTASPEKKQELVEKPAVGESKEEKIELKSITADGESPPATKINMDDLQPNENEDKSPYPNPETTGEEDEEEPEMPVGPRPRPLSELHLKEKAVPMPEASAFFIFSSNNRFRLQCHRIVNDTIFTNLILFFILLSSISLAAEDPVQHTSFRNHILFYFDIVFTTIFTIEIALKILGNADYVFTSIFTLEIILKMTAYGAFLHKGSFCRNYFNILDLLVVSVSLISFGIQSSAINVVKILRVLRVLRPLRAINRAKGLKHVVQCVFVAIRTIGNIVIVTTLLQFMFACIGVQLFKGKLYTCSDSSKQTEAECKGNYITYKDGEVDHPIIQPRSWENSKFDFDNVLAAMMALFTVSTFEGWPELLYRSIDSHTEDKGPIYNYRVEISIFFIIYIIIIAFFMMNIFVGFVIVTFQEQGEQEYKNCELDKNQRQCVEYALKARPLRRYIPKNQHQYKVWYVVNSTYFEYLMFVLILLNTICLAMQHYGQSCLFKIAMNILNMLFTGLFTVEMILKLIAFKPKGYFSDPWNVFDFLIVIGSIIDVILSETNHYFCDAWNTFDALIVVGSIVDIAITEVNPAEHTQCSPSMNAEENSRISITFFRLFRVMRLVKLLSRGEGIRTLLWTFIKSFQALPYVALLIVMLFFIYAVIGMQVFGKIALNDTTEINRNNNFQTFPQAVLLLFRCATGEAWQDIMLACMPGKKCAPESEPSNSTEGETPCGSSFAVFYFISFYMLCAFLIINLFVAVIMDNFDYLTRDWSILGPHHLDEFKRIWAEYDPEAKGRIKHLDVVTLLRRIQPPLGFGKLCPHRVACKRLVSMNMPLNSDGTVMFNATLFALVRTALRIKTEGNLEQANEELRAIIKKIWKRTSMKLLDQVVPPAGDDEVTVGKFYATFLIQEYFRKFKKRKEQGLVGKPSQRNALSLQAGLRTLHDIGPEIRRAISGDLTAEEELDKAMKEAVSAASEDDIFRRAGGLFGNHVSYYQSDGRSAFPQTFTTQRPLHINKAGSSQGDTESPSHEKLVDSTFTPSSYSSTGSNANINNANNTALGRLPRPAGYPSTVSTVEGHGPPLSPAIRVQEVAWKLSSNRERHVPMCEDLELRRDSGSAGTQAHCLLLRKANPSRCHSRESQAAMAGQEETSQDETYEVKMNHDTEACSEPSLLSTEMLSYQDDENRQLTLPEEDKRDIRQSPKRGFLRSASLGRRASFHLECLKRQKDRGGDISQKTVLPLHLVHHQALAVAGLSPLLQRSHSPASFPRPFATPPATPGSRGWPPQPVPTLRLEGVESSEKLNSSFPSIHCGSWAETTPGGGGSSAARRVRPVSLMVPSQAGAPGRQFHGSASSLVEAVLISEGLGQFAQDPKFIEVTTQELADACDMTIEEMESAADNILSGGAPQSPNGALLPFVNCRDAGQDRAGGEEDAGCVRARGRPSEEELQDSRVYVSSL
human cardiac L-type Ca channel (α1C) and its β subunit, sequence (Q08289 whole entry partner): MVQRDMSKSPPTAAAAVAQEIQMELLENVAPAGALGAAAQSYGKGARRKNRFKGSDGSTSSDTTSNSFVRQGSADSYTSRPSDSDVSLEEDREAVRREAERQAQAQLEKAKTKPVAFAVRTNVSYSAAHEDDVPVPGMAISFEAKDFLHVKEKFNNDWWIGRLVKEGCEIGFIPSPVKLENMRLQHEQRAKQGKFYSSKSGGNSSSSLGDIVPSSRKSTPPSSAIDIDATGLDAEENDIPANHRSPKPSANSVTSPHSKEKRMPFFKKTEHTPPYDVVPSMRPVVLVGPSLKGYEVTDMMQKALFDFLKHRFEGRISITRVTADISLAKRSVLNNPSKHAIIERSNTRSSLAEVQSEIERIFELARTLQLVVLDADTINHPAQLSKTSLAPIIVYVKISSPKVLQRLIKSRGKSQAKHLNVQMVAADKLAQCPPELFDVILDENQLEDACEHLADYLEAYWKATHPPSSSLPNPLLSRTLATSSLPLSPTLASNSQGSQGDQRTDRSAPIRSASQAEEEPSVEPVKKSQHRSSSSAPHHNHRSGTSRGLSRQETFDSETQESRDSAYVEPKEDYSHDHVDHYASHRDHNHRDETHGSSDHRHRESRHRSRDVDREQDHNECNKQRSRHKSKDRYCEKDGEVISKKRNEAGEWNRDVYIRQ

PXR EC60 (Human PXR) [nM] | Human Liver Microsomal Metabolism % remaining (Assay Conditions A) [1] | Structure (SMILES) | Ki (Human CCR1) [nM] | inhibition at 30 µM (hERG) [%] | inhibition at 10 µM [2] [%] | Ca, % inh ([3]; 10 μM) [% @ 10 μM] | fraction unbound (Protein binding, human) | fraction unbound (Protein binding, rabbit) | Cmax ([4]; 30 mg/kg, read-out: Cmax: Total drug at QT effect dose) [µM] | Cmax ([4]; NOEL dose 10 mg/kg, read-out: Cmax: Total drug at NOEL dose) [µM] | NOEL dose (No Observed Effect Level) (anesthetized rabbits; iv infusion) [mg/kg] | QT effect Dose (anesthetized rabbits; iv infusion) [mg/kg] | QTcf, delta (anesthetized rabbits; iv infusion, at QT effect dose 30 mg/kg) [ms] | Cmax: Free drug at QT effect dose (anesthetized rabbits; 30 mg/kg) [µM] | Cmax: Free drug at NOEL dose (anesthetized rabbits; NOEL dose 10 mg/kg) [µM] | Ca, % inh ([3]; 30 μM) [% @ 30 μM] | Cmax ([4]; 10 mg/kg, read-out: Cmax: Total drug at QT effect dose) [µM] | QTcf, delta (anesthetized rabbits; iv infusion, at QT effect dose 10 mg/kg) [ms] | Cmax: Free drug at QT effect dose (anesthetized rabbits; 10 mg/kg) [µM] | Cmax: Free drug at NOEL dose (anesthetized rabbits; NOEL not identified (<10 mg/kg)) [µM]
10200 | 99% (A) | CC(C)NC(=O)N[C@@H](C(=O)N1CC[C@](O)(c2ccc(Cl)cc2)C(C)(C)C1)C(C)C [#850] | 0.5 |  |  |  |  |  |  |  |  |  |  |  |  |  |  |  |  | 
>50000 | 59% (A) | CC[C@@H](C)NC(=O)N[C@@H](C(=O)N1CC[C@](O)(c2ccc(Cl)cc2)C(C)(C)C1)C(C)C [#897] | 2.1 |  |  |  |  |  |  |  |  |  |  |  |  |  |  |  |  | 
 |  | CC(C)[C@@H](NC(=O)c1cccc(S(N)(=O)=O)c1)C(=O)N1CC[C@](O)(c2ccc(Cl)cc2)C(C)(C)C1 [EX# 491] | 2.1 | 27 | 13 | 22 | 0.05 | 0.06 | 138 | 77 | 10 | 30 | 17 | 5.5 | 3.1 |  |  |  |  | 
 |  | CC(C)[C@@H](NC(=O)[C@@H]1CC[C@@H](O)C1)C(=O)N1CC[C@](O)(c2ccc(Cl)cc2)C(C)(C)C1 [EX# 572] | 1.5 | 32 | 25 |  | 0.16 | 0.13 |  |  |  | 10 |  |  |  | 19 | 48.6 | 22 | 6.3 | < 6.3
